CC50 and EC50 data for 20 compounds are collected here from patent publication US11261190B2, “Dihydropyrimidine compounds and uses thereof in medicine” (SUNSHINE LAKE PHARMA CO., LTD., priority 2017, dated 2022).

Data set [1] in a line: Cytotoxicity in HepG2.2.15 cells (CellTiter Glo). In kind it is cell-based. Particulars: human, highest concentration 150 μM. As for the experimental part: Test 2: Cytotoxicity and Selectivity Index
Methods of Testing Cytotoxicity and Selectivity Index
The serial diluted compound was added to a 384 wells plate at 50 μL HepG2.2.15 cell per well (3000 cells per well), the highest final concentration in the experiment is 150 μM (200 fold dilution). The plate was cultured at 37° C. in an incubator with C02 for 4 days, and cytotoxicity of the compound was detected using CellTiter Glo agent.
The cytotoxicity of the compound was calculated using the following formulate, cytotoxicity (%)=100−(detection value/mean of DMSO control wells values×100). CC50 values were calculated by a four parametric nonlinear regression model using Graphpad Prism 5 software to manage concentration−cytotoxicity (%). […]

The next data set relates to HBV. Put plainly: Anti HBV activity in vitro, viral DNA from HepG2.2.15 cells quantified by qPCR. In kind it is cell-based. Particulars: Hepatitis B virus, qPCR of viral DNA in supernatant, read-out: EC50 against HBV replication. As for the experimental part:
Test 1: Test Method of EC50 of Anti HBV
HBV Cell Line and Culture Conditions
HepG2.2.15 (SELLS, PNAS, 1987 and SELLS, JV, 1988) chromosomes have an integrated complete HBV genome, and stably express viral RNA and viral protein. HepG2.2.15 cells can secrete mature HBV particles, HBsAg and HBeAg to medium. HepG2.2.15 cells were cultured in DMEM containing 10% fetal bovine serum, 100 U/mL penicillin, 100 U/mL streptomycin, 1% non essential amino acid, 1 mM sodium pyruvate and 300 µg/mL G418.
Viral particles DNA secreted from HepG2.2.15 cells can be quantified by qPCR, and the effect of the compound on viral replication can be detected.
Test of Anti HBV Activity In Vitro
8000 HepG 2.2.15 cells per well were seeded into a 96-well plate, the plate was cultured at 37° C. and 5% CO2 for 3 days till the cells grew to full wells. Old liquid medium can be removed and replaced with new medium (200 μL) on day 0.
Formulating the compound and treating the cells in the experiment of anti virus: the compound was dissolved in DMSO to a concentration of 30 mM, and then the compound solution was diluted with DMSO to a concentration of […], and then eight dilutions at 4 fold were performed, the highest concentration is 800 μM. The serial diluted compound was added to the above plate at 1 μL per well, the highest final concentration in the experiment is 4 μM (200 fold dilution). TDF (tenofovir dipiroxil fumarate, Selleck, Cat S1400) has a highest concentration of 4 μM as a positive control. 1 μL of DMSO was added in to the positive control well at a final concentration of 0.5%, TDF was added in to the positive control well at a final concentration of 1 μM.
Detection of Viral Genomic DNA by qPCR
Primer: HBV-For-202, […]; HBV-Rev-315, […]. Copies of virus can be calculated using a standard curve plotted by using plasmid containing HBV genome and using SYBR Premix Ex Taq II Takara DRR081S kit and 1 μL cell culture supernatant as a template. EC50 values of the compound on viral replication were calculated by a four parametric nonlinear regression model using Graphpad Prism 5 software to manage concentration—viral copy number.
On the technique in general: Quantitative PCR measures a nucleic acid by following its amplification.

On to `CCOC(=O)C1=C(CN2CCN3C(=O)N(c4ccc(CC(C)(C)C(=O)O)cc4)C[C@@H]3C2)NC(c2nccs2)=N[C@H]1c1ccc(F)cc1Br` [Example 28], for which the CC50 (as a rule, the concentration giving 50% cytotoxicity) at 4 days in data set [1] is above 150000 nM. Besides, the EC50 (in general, the concentration giving half of the maximal effect) in the data set with HBV was found to be 5 nM.

As for `COC[C@@H]1[C@H]2CN(c3ccc(CCC(=O)OC)cc3)C(=O)N2CCN1CC1=C(C(=O)OC)[C@H](c2ccc(F)cc2Cl)N=C(c2nccs2)N1` [Example 50B], the EC50 in the data set with HBV amounted to 8 nM.

As to `COC(=O)C1=C(CN2CCN3C(=O)N(c4ccc(CCCNS(C)(=O)=O)cc4)C[C@@H]3C2)NC(c2nccs2)=N[C@H]1c1ccc(F)cc1Cl` [Example 49, (R)-methyl 4-(2-chloro-4-fluorophenyl)-6-(((S)-2-(4-(3-(methylsulfonylamino)propyl)phenyl)-3-oxohexahydroimidazo[1,5-a]pyrazin-7(1H)-yl)methyl)-2-(thiazol-2-yl)-1,4-dihydropyrimidin-5-carboxylate], the CC50 at 4 days in data set [1] is above 150000 nM. Also, in the data set with HBV, the EC50 was 12 nM.

In turn, `COC(=O)C1=C(CN2CCN3C(=O)N(c4nc(/C=C/C(=O)O)cs4)C[C@@H]3C2)NC(c2nccs2)=N[C@H]1c1ccc(F)cc1Cl` [Example 52, (E)-3-(2-((S)-7-(((R)-6-(2-chloro-4-fluorophenyl)-5-(methoxycarbonyl)-2-(thiazol-2-yl)-3,6-dihydropyrimidin-4-yl)methyl)-3-oxohexahydroimidazo[1,5-a]pyrazin-2(3H)-yl)-thiazol-4-yl)acrylic Acid] returned a CC50 at 4 days in data set [1] above 150000 nM. In the data set on HBV, the EC50 is 13 nM.

As to `CCOC(=O)C1=C(CN2CCN3C(=O)N(c4ccc(/C=C(\C)C(=O)O)cc4)C[C@@H]3C2)NC(c2nccs2)=N[C@H]1c1ccc(F)cc1Br` [Example 55, (E)-3-(4-((S)-7-(((R)-6-(2-bromo-4-fluorophenyl)-5-(ethoxycarbonyl)-2-(thiazol-2-yl)-3,6-dihydropyrimidin-4-yl)methyl)-3-oxohexahydroimidazo[1,5-a]pyrazin-2(3H)-yl)phenyl)-2-methylacrylic Acid], the EC50 in the data set with HBV stood at 9 nM.

In data set [1], `COC(=O)C1=C(CN2CCN3C(=O)N(c4cncc(CCC(=O)O)c4)C[C@@H]3C2)NC(c2nccs2)=N[C@H]1c1ccc(F)cc1Cl` [Example 36, 3-(5-((S)-7-(((R)-6-(2-chloro-4-fluorophenyl)-5-(methoxycarbonyl)-2-(thiazol-2-yl)-3,6-dihydropyrimidin-4-yl)methyl)-3-oxohexahydroimidazo[1,5-a]pyrazin-2(3H)-yl)pyridin-3-yl)propionic Acid] came in with a CC50 at 4 days above 150000 nM.

Take `CCOC(=O)C1=C(CN2CCN3C(=O)N(c4ccc(CCC(=O)O)cc4)C[C@@H]3[C@H]2COC)NC(c2nccs2)=N[C@H]1c1ccc(F)cc1Br` [Example 57, 3-(4-((8S,8aR)-7-(((R)-6-(2-bromo-4-fluorophenyl)-5-(ethoxycarbonyl)-2-(thiazol-2-yl)-3,6-dihydropyrimidin-4-yl)methyl)-8-(methoxymethyl)-3-oxohexahydroimidazo[1,5-a]pyrazin-2(3H)-yl)phenyl)propionic Acid]: the EC50 in the data set with HBV came out at 12 nM.

For the compound `CCOC(=O)C1=C(CN2CCN3C(=O)N(c4ccc(CCC(=O)O)cc4)C[C@@H]3C2)NC(c2nccs2)=N[C@H]1c1ccc(F)cc1Cl` [Example 23, 3-(4-((S)-7-(((R)-6-(2-chloro-4-fluorophenyl)-5-(ethoxycarbonyl)-2-(thiazol-2-yl)-3,6-dihydropyrimidin-4-yl)methyl)-3-oxohexahydroimidazo[1,5-a]pyrazin-2(3H)-yl)phenyl)prop ionic Acid], the CC50 at 4 days in data set [1] was above 150000 nM. In the data set with HBV, the EC50 stood at 7 nM.

`COC(=O)C1=C(CN2CCN3C(=O)N(c4ccc(CCC(=O)O)cc4)C[C@H]3[C@@H]2CO)NC(c2nccs2)=N[C@H]1c1ccc(F)cc1Cl` [Example 59A] registered a CC50 at 4 days in data set [1] above 150000 nM.

In data set [1], `COC(=O)C1=C(CN2CCN3C(=O)N(Cc4ccc(CC(=O)O)cc4)C[C@@H]3C2)NC(c2nccs2)=N[C@H]1c1ccc(F)cc1Cl` [Example 21, 2-(4-(((S)-7-(((R)-6-(2-chloro-4-fluorophenyl)-5-(methoxycarbonyl)-2-(thiazol-2-yl)-3,6-dihydropyrimidin-4-yl)methyl)-3-oxohexahydroimidazo[1,5-a]pyrazin-2(3H)-yl)methyl)phenyl)acetic Acid] had a CC50 at 4 days of 110000 nM. The EC50 in the data set on HBV was found to be 22 nM.

In the case of `COCC(C)(C)NC(=O)CCc1ccc(N2C[C@@H]3CN(CC4=C(C(=O)OC)[C@H](c5ccc(F)cc5Cl)N=C(c5nccs5)N4)CCN3C2=O)cc1` [Example 44, (R)-methyl 4-(2-chloro-4-fluorophenyl)-6-(((S)-2-(4-(3-((1-methoxy-2-methylpropan-2-yl)amino)-3-oxopropyl)phenyl)-3-oxohexahydroimidazo[1,5-a]pyrazin-7(1H)-yl)methyl)-2-(thiazol-2-yl)-1,4-dihydropyrimidine-5-carboxylate], the CC50 at 4 days in data set [1] was above 150000 nM. For the same compound, the EC50 in the data set on HBV stood at 10 nM.

As to `COC(=O)C1=C(CN2CCN3C(=O)N(c4ccc(CCC(=O)O)cn4)C[C@@H]3C2)NC(c2nccs2)=N[C@H]1c1ccc(F)cc1Cl` [Example 35, 3-(6-((S)-7-(((R)-6-(2-chloro-4-fluorophenyl)-5-(methoxycarbonyl)-2-(thiazol-2-yl)-3,6-dihydropyrimidin-4-yl)methyl)-3-oxohexahydroimidazo[1,5-a]pyrazin-2(3H)-yl)pyridin-3-yl)propionic Acid], the EC50 with HBV came to 8 nM.

For `CCOC(=O)C1=C(CN2CCN3C(=O)N(c4ccc(/C(C)=C/C(=O)O)cc4)C[C@@H]3C2)NC(c2nccs2)=N[C@H]1c1ccc(F)cc1Br` [Example 56, (E)-3-(4-((S)-7-(((R)-6-(2-bromo-4-fluorophenyl)-5-(ethoxycarbonyl)-2-(thiazol-2-yl)-3,6-dihydropyrimidin-4-yl)methyl)-3-oxohexahydroimidazo[1,5-a]pyrazin-2(3H)-yl)phenyl)-2-butenoic Acid], in the data set on HBV, the EC50 turned out to be 12 nM.

In the case of `COC(=O)C1=C(CN2CCN3C(=O)N([C@H](Cc4ccccc4)C(=O)O)CC3C2)NC(c2nccs2)=N[C@H]1c1ccc(F)cc1Cl` (stereo partly drawn) [Example 11, (2R)-2-(7-(((R)-6-(2-chloro-4-fluorophenyl)-5-(methoxycarbonyl)-2-(thiazol-2-yl)-3,6-dihydropyrimidin-4-yl)methyl)-3-oxohexahydroimidazo[1,5-a]pyrazin-2(3H)-yl)-3-phenylpropionic Acid], in the data set on HBV, the EC50 came to 32 nM.

As for `COCCN1C[C@@H](N2C[C@@H]3CN(CC4=C(C(=O)OC)[C@H](c5ccc(F)cc5Cl)N=C(c5nccs5)N4)CCN3C2=O)C[C@@H]1C(=O)O` [Example 7, (2R,4S)-4-((S)-7-(((R)-6-(2-chloro-4-fluorophenyl)-5-(methoxycarbonyl)-2-(thiazol-2-yl)-3,6-dihydropyrimidin-4-yl)methyl)-3-oxohexahydroimidazo[1,5-a]pyrazin-2(3H)-yl)-1-(2-methoxyethyl)pyrrolidine-2-carboxylic Acid], the concentration for a half-maximal effect (EC50) with HBV was 56 nM.

With `COC(=O)C1=C(CN2CCN3C(=O)N(C(CC(=O)O)c4ccccc4)C[C@@H]3C2)NC(c2nccs2)=N[C@H]1c1ccc(F)cc1Cl` (stereo partly drawn) [Example 12, 3-((S)-7-(((R)-6-(2-chloro-4-fluorophenyl)-5-(methoxycarbonyl)-2-(thiazol-2-yl)-3,6-dihydropyrimidin-4-yl)methyl)-3-oxohexahydroimidazo[1,5-a]pyrazin-2(3H)-yl)-3-phenylpropionic Acid], the EC50 in the data set on HBV was found to be 37 nM.

With `COC[C@@H]1[C@H]2CN(c3ccc(C(C)(C)C(=O)O)cc3)C(=O)N2CCN1CC1=C(C(=O)OC)[C@H](c2ccc(F)cc2Cl)N=C(c2nccs2)N1` [Example 61B], the EC50 in the data set on HBV came out at 5 nM.

Turning to `COC[C@@H]1[C@H]2CN(c3ccc(C(C)(C)C(=O)OC)cc3)C(=O)N2CCN1CC1=C(C(=O)OC)[C@H](c2ccc(F)cc2Cl)N=C(c2nccs2)N1` [Example 60B], the EC50 with HBV was determined as 4 nM.

For `COC(=O)CCc1ccc(N2C[C@@H]3[C@@H](CO)N(CC4=C(C(=O)OC)[C@H](c5ccc(F)cc5Cl)N=C(c5nccs5)N4)CCN3C2=O)cc1` [Example 58B], the EC50 in the data set on HBV is 14 nM.

`COC[C@H]1[C@@H]2CN(c3ccc(CCC(=O)O)cc3)C(=O)N2CCN1CC1=C(C(=O)OC)[C@H](c2ccc(F)cc2Cl)N=C(c2nccs2)N1` [Example 51A] showed a CC50 at 4 days in data set [1] above 150000 nM.
